Results: BindingDB's records for PubMed 35429911 (Univ. Lille, 2022)
pIC50: −log10 of the molar value.

Target: Programmed cell death 1 ligand/protein 1 (Homo sapiens, UniProt Q9NZQ7+Q15116)
Test: Inhibition of human PD-1/PD-L1 interaction in CHO-K1 cells transfected with PD-1-YFP/SHP-2-CFP and measured by FRET assay

Programmed cell death 1 ligand/protein 1, sequence (Q9NZQ7 whole entry): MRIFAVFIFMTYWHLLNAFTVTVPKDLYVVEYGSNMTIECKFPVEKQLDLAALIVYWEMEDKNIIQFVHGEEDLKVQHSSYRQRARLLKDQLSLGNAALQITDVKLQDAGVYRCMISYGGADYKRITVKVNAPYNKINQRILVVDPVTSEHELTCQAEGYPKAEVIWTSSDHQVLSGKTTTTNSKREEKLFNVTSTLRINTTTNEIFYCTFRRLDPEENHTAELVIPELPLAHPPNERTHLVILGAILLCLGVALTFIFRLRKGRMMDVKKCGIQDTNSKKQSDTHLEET
Programmed cell death 1 ligand/protein 1, sequence (Q15116 whole entry): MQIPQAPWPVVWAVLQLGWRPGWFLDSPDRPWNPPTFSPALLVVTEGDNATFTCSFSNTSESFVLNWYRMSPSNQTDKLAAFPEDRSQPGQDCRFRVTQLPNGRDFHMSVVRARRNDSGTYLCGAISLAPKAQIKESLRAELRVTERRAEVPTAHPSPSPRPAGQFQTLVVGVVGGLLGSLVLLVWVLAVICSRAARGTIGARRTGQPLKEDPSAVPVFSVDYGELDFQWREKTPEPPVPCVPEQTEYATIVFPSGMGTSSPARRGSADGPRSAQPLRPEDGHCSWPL

COc1ccccc1C1=NN(c2ccccn2)C(=O)C1
pIC50: 8.15

COc1ccc(C2=NN(c3ccccn3)C(=O)C2)cc1
pIC50: 7.77
